From patent US3957850A, “Phenylacetic acid derivatives” (priority 1971, dated 1976)
Read-outs that look alike come from different tables or passages of the source.

Legend:
[1] = system: peritoneal pain induced by injection of acetic acid; experiment: Analgesic activity: inhibition test of the peritoneal pain induced by injection of acetic acid (writhing); format: in vivo, mice; details: Mus musculus, read-out: % analgesia
Experimental: The analgesic activity was determined by the inhibition test of the peritoneal pain induced by injection of acetic acid.
The materials having an analgesic action reduce or eliminate this syndrome.
Lots of 10 mice are given orally the various test compounds, 30 minutes prior to injection of the challenging material. The writhing movements are counted during 15 minutes and the analgesic effect is expressed as percent decrease of the number of stretching movements with respect to the reference animals.
The same test was carried out with acetylsalicylic acid.

[2] = system: carragheenin-induced edema of the paws; experiment: Anti-inflammatory activity: test of the carragheenin-induced edema of the paws in rats; format: in vivo; details: Rattus norvegicus, 1 h, read-out: % inhibition of inflammation; for inhibition in vivo at 67 mg/kg: 67 mg/kg (about 1/36 of LD50); for inhibition in vivo at 50 mg/kg: 50 mg/kg (about 1/36 of LD50); for inhibition in vivo at 33 mg/kg: 33 mg/kg (about 1/36 of LD50)
Experimental: The anti-inflammatory activity was determined by means of the test of the carragheenin-induced edema of the pawsin rats.
Male rats weighing about 120 g are administered 0.1 ml of an 0.5% carragheenin suspension (plantar sub-aponeurotic injection) one hour after oral treatment with the various test compounds.
The volume of the rear paws is measured prior to injection of the inflammatory agent, and then 2, 3 and 4 hours after injection.
The difference between the volume of the paws of the treated animals and the volume of the paws of the reference animals evidences the anti-inflammatory action of the various test compounds.
The same test was carried out with indometacine.

[3] = Acute toxicity determination, oral LD50 by method of BEHRENS and KARBER; details: mouse, in vivo, female Swiss mice, 48 hours observation
Experimental: Acute toxicity tests were carried out with lots of 10 female mice of "Swiss" strain, weighing from 19 to 21 g.
The means lethal dose (LD50) by the oral route was determined by means of the method of BEHRENS and KARBER after keeping the animals under observation during 48 hours. In this table are also set forth the LD50 of acetylsalicylic acid and of indometacine used as reference materials.

[4] = mice, oral, 30 minutes before acetic acid
[5] = male rats, oral, one hour before carragheenin
[6] = male rats, oral, 81 mg/kg (about 1/36 of LD50), one hour before carragheenin

Structure (SMILES) | inhibition in vivo at 67 mg/kg [2, 5] [%] | LD50 at 48 h [3] [mg/kg] | further results
CCCNc1ccc(C(C)C(=O)O)cc1 (stereo not shown) [2-(p-n-propylaminophenyl)-propionic acid, 2-(p-n-Propylaminophenyl)propionic acid] | 47 | 2400 | inhibition in vivo at 13.5 mg/kg [1, 4]: 61%
C=CCNc1ccc(C(C)C(=O)O)cc1 (stereo not shown) [2-(p-allylaminophenyl)propionic acid, 2-(p-Allylaminophenyl)-propionic acid] | – | 1780 | inhibition in vivo at 20 mg/kg ([1]; mice, oral, 20 mg/kg, 30 minutes before acetic acid): 50%; inhibition in vivo at 50 mg/kg [2, 5]: 50%
C=CCNc1ccc(CC(=O)OCC)cc1 [ethyl p-allylaminophenylacetate, Ethyl para-allylaminophenylacetate] | 39 | 2400 | inhibition in vivo at 67 mg/kg [1, 4]: 41%
C=CCNc1ccc(C(C)C(=O)[O-])cc1.[Li+] (stereo not shown) | – | 2910 | –
C=CCNc1ccc(C(C)C(=O)[O-])cc1.[Li+] (stereo not shown) [lithium salt] | – | – | inhibition in vivo at 81 mg/kg ([1]; po): 28%; inhibition in vivo at 81 mg/kg ([2]; po): 59%
C#CCNc1ccc(C(C)C(=O)O)cc1 (stereo not shown) [2-(p-propargylaminophenyl)propionic acid, 2-(p-Propargylaminophenyl)-propionic acid] | 47 | 2400 | inhibition in vivo at 13.5 mg/kg [1, 4]: 55%
C=C(C)CNc1ccc(C(C)C(=O)O)cc1 (stereo not shown) [2-(p-methallylaminophenyl)propionic acid, 2-(p-Methallylaminophenyl)propionic acid] | 51 | 2400 | inhibition in vivo at 7 mg/kg ([1]; mice, oral, 7 mg/kg, 30 minutes before acetic acid): 58%
O=C(O)Cc1ccc(NCc2ccccc2)cc1 [p-benzylaminophenylacetic acid, p-Benzylaminophenylacetic acid] | 26 | 2400 | inhibition in vivo at 67 mg/kg [1, 4]: 33%
CCNc1ccc(C(C)C(=O)O)cc1 (stereo not shown) [2-(p-ethylaminophenyl)propionic acid, 2-(p-Ethylaminophenyl)propionic acid] | 47 | 2400 | inhibition in vivo at 27 mg/kg [1, 4]: 44%
CCNc1ccc(CC(=O)O)cc1 [p-ethylaminophenylacetic acid, p-Ethylaminophenylacetic acid] | – | 2910 | inhibition in vivo at 16 mg/kg ([1]; mice, oral, 16 mg/kg, 30 minutes before acetic acid): 37.5%; inhibition in vivo at 81 mg/kg [2, 6]: 23%
CC(C)Nc1ccc(C(C)C(=O)O)cc1 (stereo not shown) [2-(p-isopropylaminophenyl)propionic acid, 2-(p-Isopropylaminophenyl)-propionic acid] | 44 | 2400 | inhibition in vivo at 27 mg/kg [1, 4]: 56%
CNc1ccc(C(C)C(=O)O)cc1 (stereo not shown) [2-(p-methylaminophenyl)propionic acid, 2-(p-Methylaminophenyl)propionic acid] | – | > 3200 | inhibition in vivo at 36 mg/kg [1, 4]: 60%; inhibition in vivo at 89 mg/kg ([2]; male rats, oral, 89 mg/kg (about 1/36 of LD50), one hour before carragheenin): 44%
C=CCNc1ccc(C(C)C(=O)OC)cc1 (stereo not shown) [methyl 2-(p-allylaminophenyl)propionate, Methyl 2-(p-allylaminophenyl)-propionate] | – | 1600 | inhibition in vivo at 25 mg/kg ([1]; mice, oral, 25 mg/kg, 30 minutes before acetic acid): 57%; inhibition in vivo at 50 mg/kg [2, 5]: 35%
CCCCNc1ccc(CC(=O)O)cc1 [p-n-butylaminophenylacetic acid, p-n-Butylaminophenylacetic acid] | – | 1200 | inhibition in vivo at 33 mg/kg ([1]; mice, oral, 33 mg/kg, 30 minutes before acetic acid): 51%; inhibition in vivo at 33 mg/kg [2, 5]: 21%
COc1ccc2c(c1)c(CC(=O)O)c(C)n2C(=O)c1ccc(Cl)cc1 [indometacine, reference compound] | – | 50 | inhibition in vivo at 5 mg/kg ([2]; po): 37%
CCCCNc1ccc(C(C)C(=O)O)cc1 (stereo not shown) [2-(p-n-butylaminophenyl)propionic acid, 2-(p-n-Butylaminophenyl)propionic acid] | – | 1200 | inhibition in vivo at 13 mg/kg ([1]; mice, oral, 13 mg/kg, 30 minutes before acetic acid): 50%; inhibition in vivo at 33 mg/kg [2, 5]: 33%
CC(C)Nc1ccc(CC(=O)O)cc1 [p-isopropylaminophenylacetic acid, p-Isopropylaminophenylacetic acid] | 42 | 2400 | inhibition in vivo at 13.5 mg/kg [1, 4]: 42%
CCCNc1ccc(CC(=O)O)cc1 [p-n-propylaminophenylacetic acid, p-n-Propylaminophenylacetic acid] | 38 | 2400 | inhibition in vivo at 27 mg/kg [1, 4]: 49%
C=C(C)CNc1ccc(CC(=O)O)cc1 [p-methallylaminophenylacetic acid, p-Methallylaminophenylacetic acid] | – | 1780 | inhibition in vivo at 49 mg/kg ([1]; mice, oral, 49 mg/kg, 30 minutes before acetic acid): 32%; inhibition in vivo at 49 mg/kg ([2]; male rats, oral, 49 mg/kg (about 1/36 of LD50), one hour before carragheenin): 25%
C=C(C)CNc1ccc(CC(=O)OCC)cc1 [ethyl p-methallylaminophenylacetate, Ethyl p-methallylaminophenylacetate] | 38 | 2400 | inhibition in vivo at 67 mg/kg [1, 4]: 51%
C#CCNc1ccc(CC(=O)O)cc1 [p-propargylaminophenylacetic acid] | – | 2910 | inhibition in vivo at 36 mg/kg [1, 4]: 51%; inhibition in vivo at 81 mg/kg [2, 6]: 18%
C=C(C)CNc1ccc(C(C)C(=O)OC)cc1.Cl (stereo not shown) [Methyl 2-(p-methallylaminophenyl)-propionate hydrochloride] | 46 | 2400 | inhibition in vivo at 27 mg/kg [1, 4]: 49%
CC(=O)Oc1ccccc1C(=O)O [acetylsalicylic acid, reference compound] | – | 1500 | inhibition in vivo at 100 mg/kg ([1]; po): 55%
CC(C(=O)O)c1ccc(NCc2ccccc2)cc1 (stereo not shown) [2-(p-benzylaminophenyl)propionic acid] | – | 880 | inhibition in vivo at 10 mg/kg ([1]; mice, oral, 10 mg/kg, 30 minutes before acetic acid): 47%; inhibition in vivo at 25 mg/kg ([2]; male rats, oral, 25 mg/kg (about 1/36 of LD50), one hour before carragheenin): 12%
C=CCNc1ccc(CC(=O)O)cc1 [p-allylaminophenylacetic acid, p-Allylaminophenylacetic acid] | – | 1550 | inhibition in vivo at 100 mg/kg ([1]; mice, oral, 100 mg/kg, 30 minutes before acetic acid): 51%; inhibition in vivo at 45 mg/kg ([2]; male rats, oral, 45 mg/kg (about 1/36 of LD50), one hour before carragheenin): 32%
